Measurements: US20190083420A1, “METHODS OF USING (2R, 6R)-HYDROXYN[…] (2S, 6S)-HYDROXYN[…] THE TREATMENT OF DEPRESSION, ANXIETY, ANHEDONIA, FATIGUE, SUICIDAL IDEATION, AND POST TRAUMATIC STRESS DISORDERS” (The Uinited States of America, as represented by the …, priority 2016, published 2019)

Key:
NMDA receptor = conditions: (S)-ketamine versus (R)-ketamine; cited from earlier work
[1] = Tissue distribution of ketamine and metabolites (plasma and brain levels)
Description: Mice were euthanized by a 30-sec exposure to 3% isoflurane and decapitated at 10, 30, 60, 240 or 480 minutes following drug administration. Trunk blood was collected in EDTA-containing tubes and centrifuged at 8000 rpm for 6 min (4° C.). Plasma was collected and stored at −80° C. until analysis. Whole brains were simultaneously collected, rinsed with phosphate-buffered saline, immediately frozen in dry ice and stored at −80° C. until analysis.
The concentrations of ketamine and its metabolites in plasma and brain tissue were determined by achiral liquid chromatography-tandem mass spectrometry. For plasma samples, the calibration standards for (R,S)-ketamine, (R,S)-norketamine, (2R,6R;2S,6S)-HNK and (R,S)-DHNK ranged from 10,000 ng/ml to 19 ng/ml. The quantification of (R,S)-ketamine, (R,S)-norketamine, (R,S)-DHNK, and the HNK stereoisomers was accomplished by calculating area ratios using D4-ketamine (10 μl of 10 μg/ml solution) as the internal standard. Whole brains were suspended in 990 μl of water:methanol (3:2, v/v), D4-ketamine (10 μl of 10 μg/ml) added and the resulting mixture homogenized on ice with a polytron homogenizer and centrifuged at 21,000×g for 30 min. The supernatant was collected and processed using 1 ml Oasis HLB solid phase extraction cartridges (Waters Corp., Waltham, Mass.). The cartridges were preconditioned with 1 ml of methanol, followed by 1 ml of water and then 1 ml ammonium acetate [10 mM, pH 9.5]. The supernatants were added to the cartridges, followed by 1 ml of water and the compounds were eluted with 1 ml of methanol. The eluent was transferred to an autosampler vial for analysis. QC standards for the analysis of (R,S)-ketamine, (R,S)-norketamine, (R,S)-DHNK and (2R,6R;2S,6S)-HNK ranged from 10,000 ng/ml to 19 ng/ml, and quantification was accomplished using D4-(R,S)-ketamine as the internal standard. QC standards were prepared daily by adding 10 μl of the appropriate standard solution and 10 μl of internal standard solution (100 ng/ml) to methanol.

[2] = plasma of humans; cited from earlier work
male CD-1 mice [3] = experiment: Forced-swim test (FST); assay type: in vivo; conditions: 1- and 24-hours post-injection, times not separated, i.p.
Description: (§1) Male CD-1 mice (8-10 weeks old, Charles River Laboratories, Mass., USA) were housed in groups of four-five per cage with a constant 12-hour light/dark cycle (lights on/off at 07:00/19:00). Food and water were available ad libitum. Mice acclimatized to the new environment for seven days prior to the start of the experiments. For the whole-cell NMDA current electrophysiological recordings, male Sprague-Dawley rats (housed three per cage; Charles River, Wilmington, Mass.) were used. EPSC recording were done from rats at postnatal day 24-25. All experimental procedures were approved by the University of Maryland, Baltimore Animal Care and Use Committee and were conducted in full accordance with the National Institutes of Health Guide for the Care and Use of Laboratory Animals.
Mice were tested in the FST 1 hour and/or 24 hours post-injection. During the FST, mice were subjected to a 6-min swim session in clear Plexiglass cylinders (30 cm height×20 cm diameter) filled with 15 cm of water (23±1° C.). The FST was performed in normal light conditions (800 Lux). Sessions were recorded using a digital video-camera. Immobility time, defined as passive floating with no additional activity other than that necessary to keep the animal's head above water, was scored for the last 4 min of the 6-min test by a trained observer blind to the treatment.
All drugs were dissolved in 0.9% saline, and administered intraperitoneally (i.p.) in a volume of 7.5 ml/kg of body mass. Corticosterone (4-pregnen-11β, 21-diol-3, 20-dione 21-hemisuccinate; Steraloids, Newport, R.I., USA) was dissolved in tap water. For the electrophysiology recordings, test drugs were diluted in artificial cerebrospinal fluid (AC SF).

male CD-1 mice [4] = experiment: Novelty-suppressed feeding (NSF); assay type: in vivo; conditions: i.p.
Description: as §1
Mice were singly housed and food-deprived for twenty-four hours in freshly-made home-cages. Two normal chow diet pellets were placed on a square food platform (10×10 cm) in the center of an open-field arena (40×40 cm). […] The time needed for the mice to take a bite of food was recorded over a 10 min period by a trained observer blind to the treatment groups. After the test, the mice were returned to their home cage containing pre-weighed food pellets, and latency to bite the food as well as consumption was recorded for a period of 10 min.

male CD-1 mice [5] = experiment: Learned helplessness (LH); assay type: in vivo; conditions: single injection; for antidepressant-like effect in learned helplessness (escape failures): test 24 hours after administration
Description: as §1
The LH paradigm consisted of three different phases, i.e., inescapable shock training, LH screening, and the LH test. For the inescapable shock portion of the test (Day 1), the animals were placed in one side of two-chambered shuttle boxes (34 cm height×37 cm width×18 cm depth; Coulbourn Instruments, PA, USA), with the door between the chambers closed. Following a five-min adaptation period, 120 inescapable foot-shocks (0.45 mA, 15 sec duration, randomized average inter-shock interval of 45 sec) were delivered through the grid floor. During the screening session (Day 2), the mice were placed in one of the two chambers of the apparatus for 5 min. A shock (0.45 mA) was then delivered, and the door between the two chambers was raised simultaneously. Crossing over into the second chamber terminated the shock. […] A total of 30 screening trials of escapable shocks were presented to each mouse with an average of 30 sec delay between each trial. Mice that developed helplessness behavior (>5 escape failures during the last 10 screening shocks) were administered with the respective drug 24 hours following screening (Day 3). During the LH test phase (Day 4), the animals were placed in the shuttle boxes and, after a 5-min adaptation period, a 0.45 mA shock was delivered concomitantly with door opening for the first five trials, followed by a 2-sec delay for the next 40 trials. Crossing over to the second chamber terminated the shock. […] A total of 45 trials of escapable shock were presented to each mouse with 30 sec inter-trial intervals. The number of escape failures was recorded for each mouse.

mice [6] = experiment: Open field test (locomotor activity); assay type: in vivo; conditions: 1 hour after i.p. drug
Description: Mice were placed into individual open-field arenas (50 cm length×50 cm width×38 cm height; San Diego Instruments, San Diego, Calif., USA) for a 60-min habituation period. Mice were then injected with the respective drug and assessed for locomotor activity for another 60 min. Distance travelled was analyzed using TopScan v2.0 (CleverSys, Inc, Reston, Va., USA).

mice [7] = experiment: Accelerating rotarod (motor coordination); assay type: in vivo; conditions: 5-60 min post-injection, i.p.
Description: The rotarod test was conducted to compare the effects of ketamine, (2S,6S)-HNK and (2R,6R)-HNK on motor coordination. The experiment consisted of two phases: training phase (4 days) and a test phase (1 day). On each of the training days five trials (trial time: 3 min) were conducted with an inter-trial interval of two min Mice were individually placed on the rotarod apparatus (HTC Life Science; Woodland Hills, Calif., USA) and the rotor (3.75 inch diameter) accelerated from 5-20 RPM over a period of three minutes. Latency to fall was recorded for each trial. Animals with an average of <100 sec of latency to fall during the last training day were excluded from the experiment. On the test day (day 5), mice received (i.p.) injections of saline, (R,S)-KET (10 mg/kg), (2S,6S)-HNK (25 or 125 mg/kg) or (2R,6R)-HNK (2.5 or 125 mg/kg) and were tested in the rotating rod 5-. 10-, 15-, 20-, 30- and 60-min post-injection using the same procedure described for the training days.

Q: With `CN[C@]1(c2ccccc2Cl)CCCCC1=O` [(S)-ketamine] as the compound, how does the “potency as inhibitor of the NMDA receptor relative to (R)-ketamine” value (NMDA receptor) read?
A: ~4 fold

Q: Which results are given for `N[C@@]1(c2ccccc2Cl)CCC[C@@H](O)C1=O` [(2S,6S;2R,6R)-HNK, (2S,6S;2R,6R)-hydroxynorketamine]?
A: brain levels following ketamine administration, female mice compared to males ([1]; brain): three fold higher; metabolite found in plasma and brain following ketamine administration ([1]; mice, (R,S)-KET 10 mg/kg i.p.): major HNK metabolite; metabolite found in plasma following ketamine administration [2]: major HNK metabolite

Q: Which “antidepressant effect in the FST (immobility time)” value (male CD-1 mice [3]) does the source give for `CN[C@@]1(c2ccccc2Cl)CCCCC1=O` [(R)-ketamine, reference compound] here?
A: greater potency

Q: And the “antidepressant-like effect in novelty-suppressed feeding (latency to feed)” value (male CD-1 mice [4])?
A: greater potency

Q: And the “antidepressant-like effect in learned helplessness (escape failures)” value (male CD-1 mice [5])?
A: greater potency

Q: And the “brain levels of (R)-ketamine compared to (S)-ketamine” value ([1]; brain, after (S)- and (R)-KET)?
A: does not result from higher brain levels

Q: Which “doses with antidepressant-like effects in learned helplessness” value (male CD-1 mice [5]) does the source give for `N[C@]1(c2ccccc2Cl)CCC[C@H](O)C1=O` [(2S,6S)-HNK, (2S,6S)-2-amino-2-(2-chlorophenyl)-6-hydroxycyclohexanone] here?
A: 75 mg/kg

Q: What about the “antidepressant-like effect in learned helplessness (escape failures)” value (male CD-1 mice [5]) of the same compound?
A: induced antidepressant-like effects

Q: What about the “locomotor activity in the open-field test” value (mice [6]) of the same compound?
A: increased locomotor activity

Q: What about the “locomotor activity in the open-field test” value (mice [6]; listed as (2S,6S)-hydroxynorketamine) of the same compound?
A: dose-dependently changed locomotor activity

Q: And the “motor coordination in the rotarod” value (mice [7])?
A: motor incoordination

Q: And the “motor coordination in the rotarod” value (mice [7]; listed as (2S,6R)-HNK)?
A: induced motor incoordination

Q: What about the “brain hydroxynorketamine levels after administration of (2S,6S)-HNK versus (2R,6R)-HNK” value ([1]; brain) of the same compound?
A: higher brain hydroxynorketamine levels compared to (2R,6R)-HNK
